This experiment has as its target 5-HT2A receptors (Rattus norvegicus, UniProt P14842). Kind of experiment: in-vitro affinity to 5-HT2A receptors, displacement of [3H]ketanserine (Example A1). Type of experiment: binding. The source says:
The 5-HT2A receptors are exposed both to [^3H]ketanserine (a substance which is known for its affinity to the receptor) and also to the test compound. The decrease in the affinity of [^3H]ketanserine to the receptor is an indication of the affinity of the test substance to the 5-HT2A receptor.
(In general: Loss of bound radioactivity is the signal in a displacement assay; it reports binding, not function.)

The mark [1] stands for this setting: target not given, description names affinity to 5-HT2A receptors, read-out: IC50.

Molecules are shown by their SMILES. pIC50: −log10 of the molar value. Like-named read-outs stand apart in the source and are kept apart here.

Chain of 5-HT2A receptors (P14842 whole entry): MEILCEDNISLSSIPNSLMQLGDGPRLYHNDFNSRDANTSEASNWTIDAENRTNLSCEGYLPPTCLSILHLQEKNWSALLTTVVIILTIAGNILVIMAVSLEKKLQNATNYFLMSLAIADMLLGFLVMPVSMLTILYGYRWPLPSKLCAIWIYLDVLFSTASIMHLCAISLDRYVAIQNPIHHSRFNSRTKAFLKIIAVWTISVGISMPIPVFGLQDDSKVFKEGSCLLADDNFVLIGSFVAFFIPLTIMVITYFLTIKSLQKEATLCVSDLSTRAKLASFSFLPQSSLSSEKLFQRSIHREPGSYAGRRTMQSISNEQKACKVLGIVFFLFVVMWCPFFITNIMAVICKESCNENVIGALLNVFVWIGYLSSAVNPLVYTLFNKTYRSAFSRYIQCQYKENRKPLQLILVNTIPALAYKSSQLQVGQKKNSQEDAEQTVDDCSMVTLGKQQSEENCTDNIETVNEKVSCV

For the compound `Cc1cc(CNCc2cnn(-c3ccc(-c4ccccc4)cc3)c2-c2ccccc2)no1` [(181), (1-Biphenyl-4-yl-5-phenyl-1H-pyrazol-4-ylmethyl)-(5-methylisoxazol-3-ylmethyl)amine], the pIC50 (commonly −log10 of the IC50, conventionally taken in molar units) under setting [1] was 6.62.
As for `Fc1ccccc1-c1c(CN2CCCCCC2)cnn1-c1ccc(-c2ccccc2)cc1` [(31), 1-[1-Biphenyl-4-yl-5-(2-fluorophenyl)-1H-pyrazol-4-ylmethyl]-azepan], the pIC50 under setting [1] is 7.32.
Consider `CN1CCN(Cc2cnn(-c3ccc(-c4ccc(F)cc4F)cc3)c2-c2ccccc2F)CC1` [Example 955, 1-[1-(2′,4′-Difluorobiphenyl-4-yl)-5-(2-fluoro-phenyl)-1H-pyrazol-4-ylmethyl]-4-methyl-piperazine], for which, where the note is “read-out: HT2A IC50”, the pIC50 was 7.25.
With `CC(C)(C)OC(=O)N1CCC(NCc2cnn(-c3ccc(-c4ccccc4)cc3)c2-c2ccccc2F)C1` (centres unmarked) [(176), tert-Butyl 3-{[1-biphenyl-4-yl-5-(2-fluorophenyl)-1H-pyrazol-4-ylmethyl]amino}pyrrolidine-1-carboxylate], the pIC50 under setting [1] is 6.34.
As for `Fc1ccccc1-c1c(CN2CCN(Cc3ccsc3)CC2)cnn1-c1ccc(-c2ccccc2)cc1` [Example 1047, 1-[1-Biphenyl-4-yl-5-(2-fluorophenyl)-1H-pyrazol-4-ylmethyl]-4-thiophen-3-ylmethyl-piperazine], where the note is “read-out: HT2A IC50”, the pIC50 is 6.42.
In the case of `OC1CCN(Cc2cnn(-c3ccc(-c4ccccc4)cc3)c2-c2ccccc2F)CC1` [(81), 1-[1-Biphenyl-4-yl-5-(2-fluorophenyl)-1H-pyrazol-4-ylmethyl]-piperidin-4-ol], the pIC50 under setting [1] was 6.37.
The same measure, in the same setting: to `NC(=O)C1CCCN1Cc1cnn(-c2ccc(-c3ccccc3)cc2)c1-c1ccccc1F` (centres unmarked) [(155), 1-[1-Biphenyl-4-yl-5-(2-fluorophenyl)-1H-pyrazol-4-ylmethyl]-pyrrolidine-2-carboxamide] belongs 5.77; to `Fc1ccccc1-c1c(CN2CCc3ccccc3C2)cnn1-c1ccc(-c2ccccc2)cc1` [(36), 2-[1-Biphenyl-4-yl-5-(2-fluorophenyl)-1H-pyrazol-4-ylmethyl]-1,2,3,4-tetrahydroisoquinoline], 7.15.
As to `Fc1ccccc1-c1c(CNC2C3CNCC32)cnn1-c1ccc(-c2ccccc2)cc1` (centres unmarked) [Example 1041, (3-Azabicyclo[3.1.0]hex-6-yl)-[1-biphenyl-4-yl-5-(2-fluorophenyl)-1H-pyrazol-4-ylmethyl]-amine], for the setting “read-out: HT2A IC50”, the pIC50 was 6.49.
On to `Cc1ccccc1-c1c(CN2CCN(C)CC2)cnn1-c1ccc(-c2ccc(F)cc2)cc1` [Example 966, 1-[1-(4′-Fluorobiphenyl-4-yl)-5-o-tolyl-1H-pyrazol-4-ylmethyl]-4-methyl-piperazine], for which the pIC50 (read-out: HT2A IC50) was 7.14.
The same measure, in the same setting: the figure for `CCN(Cc1ccccc1)Cc1cnn(-c2ccc(-c3ccccc3)cc2)c1-c1ccccc1F` [Example 1039, Benzyl-[1-biphenyl-4-yl-5-(2-fluoro-phenyl)-1H-pyrazol-4-ylmethyl]ethylamine] is 6.49.
Take `Fc1ccccc1-c1c(CN2CCCCC2)cnn1-c1ccc(-c2ccccc2)cc1` [(23), 1-[1-Biphenyl-4-yl-5-(2-fluorophenyl)-1H-pyrazol-4-ylmethyl]-piperidine]: the pIC50 under setting [1] was 7.52.
Regarding `CCOC(=O)N1CCC(N(C)Cc2cnn(-c3ccc(-c4ccccc4)cc3)c2-c2ccccc2F)CC1` [Example 999, Ethyl 4-{[1-biphenyl-4-yl-5-(2-fluorophenyl)-1H-pyrazol-4-ylmethyl]methylamino}piperidine-1-carboxylate], the pIC50 (read-out: HT2A IC50) was 6.77.
`CC(=O)NC1CCN(Cc2cnn(-c3ccc(-c4ccccc4)cc3)c2-c2ccccc2F)C1` (centres unmarked) [(50), N-{1-[1-Biphenyl-4-yl-5-(2-fluorophenyl)-1H-pyrazol-4-ylmethyl]pyrrolidin-3-yl}acetamide]: the pIC50 under setting [1] is 7.54.
On the same count and under the same terms, the figure for `CC(C)(C)OC(=O)N1CC2C(C1)C2NCc1cnn(-c2ccc(-c3ccccc3)cc2)c1-c1ccccc1F` (centres unmarked) [(190), tert-Butyl 6-{[1-biphenyl-4-yl-5-(2-fluorophenyl)-1H-pyrazol-4-ylmethyl]amino}-3-azabicyclo[3.1.0]hexane-3-carboxylate] is 6.28; for `CN1CCN(Cc2cnn(-c3ccc(C(F)(F)F)cc3)c2-c2ccccc2F)CC1` [(87), 1-[5-(2-Fluorophenyl)-1-(4-trifluoromethylphenyl)-1H-pyrazol-4-ylmethyl]-4-methylpiperazine] it is 6.80.
For `Fc1ccccc1-c1c(CN2CCCC2)cnn1-c1ccc(-c2ccccc2)cc1` [(35), 1-Biphenyl-4-yl-5-(2-fluorophenyl)-4-pyrrolidin-1-ylmethyl-1H-pyrazole], the negative logarithm of the IC50 (pIC50) under setting [1] was 7.49.
Turning to `Fc1ccccc1-c1c(CN2CCCCCC2)cnn1-c1ccc(-c2ccccc2)cc1` [Example 948, 1-[1-Biphenyl-4-yl-5-(2-fluorophenyl)-1H-pyrazol-4-ylmethyl]azepan], where the note is “read-out: HT2A IC50”, the pIC50 is 7.32.
For `CN1CCC(N(C)Cc2cnn(-c3ccc(-c4ccccc4)cc3)c2-c2ccccc2F)CC1` [Example 995, [1-Biphenyl-4-yl-5-(2-fluorophenyl)-1H-pyrazol-4-ylmethyl]methyl-(1-methylpiperidin-4-yl)amine], the pIC50 (read-out: HT2A IC50) is 6.80.
As for `C=CCC(O)c1cnn(-c2ccc(-c3ccccc3)cc2)c1-c1ccccc1F` (centres unmarked) [(150), 1-[1-Biphenyl-4-yl-5-(2-fluorophenyl)-1H-pyrazol-4-yl]-but-3-en-1-ol], under setting [1], the pIC50 was 5.89.
As to `Fc1ccccc1-c1c(CNc2cnccn2)cnn1-c1ccc(-c2ccccc2)cc1` [(158), [1-Biphenyl-4-yl-5-(2-fluorophenyl)-1H-pyrazol-4-ylmethyl]-pyrazin-2-ylamine], the pIC50 under setting [1] is 5.64.
Same read-out and setting: the figure for `N#CCNCc1cnn(-c2ccc(-c3ccccc3)cc2)c1-c1ccccc1F` [(124), {[1-Biphenyl-4-yl-5-(2-fluorophenyl)-1H-pyrazol-4-ylmethyl]-amino}acetonitrile] is 6.55.
For `CN1CCN(Cc2cnn(-c3ccc(-c4cc(Cl)cc(Cl)c4)cc3)c2-c2ccccc2F)CC1` [Example 973, 1-[1-(3′,5′-Dichlorobiphenyl-4-yl)-5-(2-fluoro-phenyl)-1H-pyrazol-4-ylmethyl]-4-methyl-piperazine], the pIC50 (read-out: HT2A IC50) was 7.07.
As to `CN1CCN(CC(O)CC(O)c2cnn(-c3ccc(-c4ccccc4)cc3)c2-c2ccccc2F)CC1` (centres unmarked) [(149), 1-[1-Biphenyl-4-yl-5-(2-fluorophenyl)-1H-pyrazol-4-yl]-4-(4-methylpiperazin-1-yl)butane-1,3-diol], the pIC50 under setting [1] is 6.21.
For `CN(CC(N)=O)Cc1cnn(-c2ccc(-c3ccccc3)cc2)c1-c1ccccc1F` [(132), 2-{[1-Biphenyl-4-yl-5-(2-fluorophenyl)-1H-pyrazol-4-ylmethyl]-methylamino}acetamide], under setting [1], the pIC50 was 6.04.
Same read-out and setting: to `CN1CCN(Cc2cnn(-c3ccc(-c4ccccc4)cc3)c2-c2ccccn2)CC1` [(58), 1-(1-Biphenyl-4-yl-5-pyridin-2-yl-1H-pyrazol-4-ylmethyl)-4-methylpiperazine] belongs 7.30.
For the compound `Cc1cc(CNCc2cnn(-c3ccc(-c4ccccc4)cc3)c2-c2ccccc2)no1` [Example 1023, (1-Biphenyl-4-yl-5-phenyl-1H-pyrazol-4-yl-methyl)-(5-methylisoxazol-3-ylmethyl)amine], under “read-out: HT2A IC50”, the pIC50 is 6.62.
Regarding `CN1CCN(Cc2cnn(-c3ccc(-c4ccc(F)cc4)cc3)c2-c2ccccc2F)CC1` [(64), 1-[1-(4′-Fluorobiphenyl-4-yl)-5-(2-fluorophenyl)-1H-pyrazol-4-ylmethyl]-4-methylpiperazine], the pIC50 under setting [1] was 8.11.
Same read-out and setting: the figure for `Cc1nn(C)c(C)c1NCc1cnn(-c2ccc(-c3ccccc3)cc2)c1-c1ccccc1F` [(187), [1-Biphenyl-4-yl-5-(2-fluorophenyl)-1H-pyrazol-4-ylmethyl]-(1,3,5-trimethyl-1H-pyrazol-4-yl)amine] is 6.23; for `OC1CCN(Cc2cnn(-c3ccc(-c4ccccc4)cc3)c2-c2ccccc2F)C1` (centres unmarked) [(53), 1-[1-Biphenyl-4-yl-5-(2-fluorophenyl)-1H-pyrazol-4-ylmethyl]-pyrrolidin-3-ol] it is 7.85; for `Fc1ccccc1-c1c(CN2CCN(Cc3ccccc3)CC2)cnn1-c1ccc(-c2ccccc2)cc1` [(24), 1-Benzyl-4-[1-biphenyl-4-yl-5-(2-fluorophenyl)-1H-pyrazol-4-ylmethyl]piperazine] it is 6.77.
With `O=C(CNCc1cnn(-c2ccc(-c3ccccc3)cc2)c1-c1ccccc1F)Nc1ccc([N+](=O)[O-])cc1` [Example 980, 2-{[1-Biphenyl-4-yl-5-(2-fluorophenyl)-1H-pyrazol-4-ylmethyl]amino}-N-(4-nitrophenyl)-acetamide], the pIC50 (read-out: HT2A IC50) was 7.00.
Turning to `Fc1ccccc1-c1c(CN2CCN(Cc3ccsc3)CC2)cnn1-c1ccc(-c2ccccc2)cc1` [(135), 1-[1-Biphenyl-4-yl-5-(2-florophenyl)-1H-pyrazol-4-ylmethyl]-4-thiophen-3-ylmethylpiperazine], the pIC50 under setting [1] was 6.42.
Take `CN1CCN(Cc2cnn(-c3cccc(-c4ccc(Cl)cc4)c3)c2-c2ccccc2F)CC1` [Example 1049, 1-[1-(4′-Chlorobiphenyl-3-yl)-5-(2-fluoro-phenyl)-1H-pyrazol-4-ylmethyl]-4-methyl-piperazine]: the pIC50 (read-out: HT2A IC50) was 6.41.
Still for that read-out and setting: to `Cc1nn(-c2ccccc2)c(C)c1CN1CCN(C(=O)CC(C)C(=O)O)CC1` (centres unmarked) [Example 978] belongs 7.00.
For the compound `COCCNCc1cnn(-c2ccc(-c3ccccc3)cc2)c1-c1ccccc1F` [(78), [1-Biphenyl-4-yl-5-(2-fluorophenyl)-1H-pyrazol-4-ylmethyl]-(2-methoxyethyl)amine], under setting [1], the pIC50 was 7.80.
In the case of `OC1CCN(Cc2cnn(-c3ccc(-c4ccccc4)cc3)c2-c2ccccc2F)CC1` [Example 1053, 1-[1-Biphenyl-4-yl-5-(2-fluorophenyl)-1H-pyrazol-4-ylmethyl]piperidin-4-ol], under “read-out: HT2A IC50”, the pIC50 is 6.37.
In the case of `CN1CCN(NCc2cnn(-c3ccc(-c4ccc(F)cc4)cc3)c2-c2ccccc2)CC1` [Example 974, [1-(4′-Fluorobiphenyl-4-yl)-5-phenyl-1H-pyrazol-4-ylmethyl]-(4-methyl-piperazin-1-yl)amine], the pIC50 (read-out: HT2A IC50) was 7.06.
